For data set [1], the system named is CUG foci in primary DM1 patient myoblasts. Kind of data set: Single-cut screening: FISH staining of CUG RNA foci. It counts as cell-based, human. The note with it: single sgRNA, primary DM1 patient myoblasts; for % of CUG foci free nuclei (DNA-PKi): DNA-PKi treated. An outline of the steps:
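CD56-purified primary DM1 patient myoblasts nucleofected with SluCas9:sgRNA RNP (30:90 pmol, single-cut), then DMSO or 3 μM DNA-PK inhibitor for 48 h. At 72 h post-nucleofection, cells fixed and stained for CUG foci with Cy3-PNA(CAG)5 probe (1 ng/μL, 80 °C), co-stained for MBNL1 and Hoechst, imaged by high-content confocal microscopy.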

Data set [2] deals with 3′ UTR of the human DMPK gene. Kind of data set: Single-cut screening: indel editing efficiency by Sanger sequencing and ICE analysis in primary DM1 patient myoblasts. It is filed as cell-based. Particulars: vehicle-treated samples; for Indel efficiency: single SluCas9 sgRNA RNP in primary DM1 patient myoblasts, Sanger sequencing and ICE analysis. The procedure:
Genomic DNA of DM1 myoblasts was isolated with the Kingfisher Flex purification system (Thermal Fisher) in 96-well format following the manufacturer's instruction. The DMPK 3′ UTR region was amplified using GoTaq Green Master Mix (Promega) and PCR primers flanking the 3′ UTR region. […] Amplification was conducted using the following cycling parameters: 1 cycle at 95° C. for 2 min; 40 cycles of 95° C. for 30 sec, 63° C. for 30 sec, and 72° C. for 90 sec; 1 cycle at 72° C. for 5 min. Only the wild type allele is amplified by the PCR reaction. The PCR products were analyzed on the TapeStation system with High Sensitivity D5000 ScreenTape (Agilent Technologies).
PCR products were purified and sequenced by Sanger sequencing. […] Indel values were estimated using the ICE analysis algorithm (Synthego) with the chromatogram files obtained from Sanger sequencing.
RNPs were assembled with recombinant SluCas9 protein and chemically modified sgRNAs at a ratio of 1:3 (protein:sgRNA). For SINGLE-cut screening, RNP complexes were assembled with 30 pmol of SluCas9 and 90 pmol of sgRNA in P5 Primary Cell Nucleofector Solution (Lonza). After incubation at room temperature for 20 minutes, 10 μL of RNP complex were mixed with two hundred thousand of primary myoblasts resuspended in 10 μL of P5 Nucleofector Solution. For DOUBLE-cut screening, RNP complexes were first assembled for individual sgRNAs with 20 pmol of SluCas9 protein and 60 pmol of sgRNAs in 5 μL of P5 Nucleofector Solution. After incubation at room temperature for 20 minutes, the two RNP complexes (one for upstream sgRNA and one for downstream sgRNA) were mixed at 1:1 ratio and then further mixed with two hundred thousand of primary myoblasts resuspended in 10 μL of P5 Nucleofector Solution.
The Nucleofector 96-well Shuttle System (Lonza) was used to deliver the SluCa9/sgRNA RNPs into primary DM1 patient myoblasts using the nucleofection program CM138. […] 72 hrs post nucleofection, two wells of DMSO-treated myoblasts and two wells of DNA-PKi-treated myoblasts from each nucleofection were harvested for genomic DNA extraction using the Kingfisher Flex purification system (Thermal Fisher), whereas one well of DMSO-treated myoblasts and one well of DNA-PKi-treated myoblasts were stained for RNA foci by FISH staining.
To assess the efficiency of individual SluCas9 sgRNAs for inducing indel editing and CTG repeat excision, single-cut screening was performed in which individual SluCas9 sgRNAs and recombinant SluCas9 protein were assembled into ribonucleoprotein (RNP) and delivered into primary DM1 patient myoblasts. […] Seventy-two (72) hrs post nucleofection, myoblasts were subjected to either genomic DNA isolation or RNA foci staining by fluorescence in situ hybridization (FISH).
Sanger sequencing and ICE analysis were then performed to quantify the frequency of indels induced by individual sgRNAs. It is of note that only the vehicle-treated samples were used for ICE analysis.
Editing efficiency was assessed by Sanger sequencing and ICE analysis. […] The * indicates the sgRNAs with R2<0.9 in the ICE analysis (in-house QC standard for reliable ICE analysis).

The subject of data set [3] is CAG foci in primary DM1 patient myoblasts. Kind of data set: Single-cut screening: CAG foci staining. It is filed as cell-based, human. The note with it: single sgRNA; for % of CAG foci positive nuclei (DNA-PKi): DNA-PKi treated. An outline of the steps:
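Primary DM1 patient myoblasts were PFA-fixed and hybridized with […] (1 ng/μL, 15 min at 80° C) in 30% formamide/2×SSC, followed by anti-MBNL1 immunostaining and Hoechst counterstain. CAG RNA foci were quantified by high-content confocal imaging after single-cut SuCas9 sgRNA editing.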

Take “TTTGCACTTTGCGAACCAACGA (guide RNA; chemistry not fully specified) [SluD29]”: in data set [1], the “% of CUG foci free nuclei (DNA-PKi)” value stood at 28.37% and the “% of CUG foci free nuclei (Vehicle)” value is listed as 7.97%. In addition, in data set [2], the Indel efficiency amounted to 35%. In addition, in data set [3], the “% of CAG foci positive nuclei (DNA-PKi)” value came to 2.38% and the “% of CAG foci positive nuclei (Vehicle)” value is 1.72%.

Consider “GTGGATGGGCAAACTGCAGGCC (guide RNA; chemistry not fully specified) [SluD13]”, for which, in data set [1], the “% of CUG foci free nuclei (DNA-PKi)” value was determined as 42.02% and the “% of CUG foci free nuclei (Vehicle)” value was found to be 15.93%. For the same substance, the Indel efficiency in data set [2] turned out to be 55%. In data set [3], the “% of CAG foci positive nuclei (DNA-PKi)” value was found to be 2.77% and the “% of CAG foci positive nuclei (Vehicle)” value amounted to 4.07%.

Turning to “ctccctccccggccGCTAGGGG (guide RNA; as printed in the source, key not given here) [SluU45]”, in data set [1], the “% of CUG foci free nuclei (DNA-PKi)” value turned out to be 43.15% and the “% of CUG foci free nuclei (Vehicle)” value is reported as 12.63%. In data set [2], this substance displayed an Indel efficiency of 14%. In data set [3], the “% of CAG foci positive nuclei (DNA-PKi)” value turned out to be 2.36% and the “% of CAG foci positive nuclei (Vehicle)” value was 1.11%.

Consider “CCTGACGTGGATGGGCAAACTG (guide RNA; chemistry not fully specified) [SluD09]”, for which, in data set [1], the “% of CUG foci free nuclei (DNA-PKi)” value is 33.83% and the “% of CUG foci free nuclei (Vehicle)” value was 12.5%. The substance also displayed an Indel efficiency in data set [2] of 5%. Moreover, in data set [3], the “% of CAG foci positive nuclei (DNA-PKi)” value was 1.48% and the “% of CAG foci positive nuclei (Vehicle)” value amounted to 1.16%.

With “AGGGCCTTTTATTCGCGAGGGT (guide RNA; chemistry not fully specified) [SluD96]”, in data set [1], the “% of CUG foci free nuclei (DNA-PKi)” value stood at 31.02% and the “% of CUG foci free nuclei (Vehicle)” value is listed as 21%. Moreover, in data set [2], the Indel efficiency is listed as 31%. For the same substance, in data set [3], the “% of CAG foci positive nuclei (DNA-PKi)” value was found to be 2.73% and the “% of CAG foci positive nuclei (Vehicle)” value is 2.21%.

As for “CCGAGAGCAGCGCAAGTGAGGA (guide RNA; chemistry not fully specified) [SluD50]”, in data set [1], the “% of CUG foci free nuclei (DNA-PKi)” value is reported as 30.13% and the “% of CUG foci free nuclei (Vehicle)” value is reported as 7.64%. In data set [2], this substance registered an Indel efficiency of 4%. Besides, in data set [3], the “% of CAG foci positive nuclei (DNA-PKi)” value was determined as 2.2% and the “% of CAG foci positive nuclei (Vehicle)” value was 1.81%.

With “TAGCggccggggagggaggggc (guide RNA; as printed in the source, key not given here) [SluU49]”, in data set [1], the “% of CUG foci free nuclei (DNA-PKi)” value was 38.7% and the “% of CUG foci free nuclei (Vehicle)” value stood at 7.53%. For the same substance, the Indel efficiency in data set [2] amounted to 0%. In data set [3], the “% of CAG foci positive nuclei (DNA-PKi)” value is given as 1.44% and the “% of CAG foci positive nuclei (Vehicle)” value stood at 1.03%.

Take “GTCGGGGGTGGGGGTCCTAGGT (guide RNA; chemistry not fully specified) [SluD85]”: in data set [1], the “% of CUG foci free nuclei (DNA-PKi)” value came out at 29.51% and the “% of CUG foci free nuclei (Vehicle)” value turned out to be 17.4%. Besides, the Indel efficiency in data set [2] was 28%. Further, in data set [3], the “% of CAG foci positive nuclei (DNA-PKi)” value turned out to be 2.82% and the “% of CAG foci positive nuclei (Vehicle)” value was 2.51%.

In the case of “AGCGGTTGTGAACTGGCAGGCG (guide RNA; chemistry not fully specified) [SluU19]”, in data set [1], the “% of CUG foci free nuclei (DNA-PKi)” value was 69.93% and the “% of CUG foci free nuclei (Vehicle)” value was found to be 19.3%. In data set [2], the Indel efficiency was 48%. For the same substance, in data set [3], the “% of CAG foci positive nuclei (DNA-PKi)” value was 0.83% and the “% of CAG foci positive nuclei (Vehicle)” value was determined as 1.54%.

In the case of “GGGCCTTTTATTCGCGAGGGTC (guide RNA; chemistry not fully specified) [SluD95]”, in data set [1], the “% of CUG foci free nuclei (DNA-PKi)” value was 27.23% and the “% of CUG foci free nuclei (Vehicle)” value amounted to 21.81%. Besides, the Indel efficiency in data set [2] is listed as 28%. In data set [3], the “% of CAG foci positive nuclei (DNA-PKi)” value turned out to be 2.19% and the “% of CAG foci positive nuclei (Vehicle)” value is given as 1.3%.

On to “cggggagggaggggccgggtcc (CGGGGAGGGAGGGGCCGGGTCC; guide RNA; chemistry not fully specified) [SluU52]”, for which, in data set [1], the “% of CUG foci free nuclei (DNA-PKi)” value is given as 65.25% and the “% of CUG foci free nuclei (Vehicle)” value is 23.34%. The substance also showed an Indel efficiency in data set [2] of 34%. Further, in data set [3], the “% of CAG foci positive nuclei (DNA-PKi)” value stood at 2.65% and the “% of CAG foci positive nuclei (Vehicle)” value worked out at 0.74%.

Take “CCATCCACGTCAGGGCCTCAGC (guide RNA; chemistry not fully specified) [SluD08]”: in data set [1], the “% of CUG foci free nuclei (DNA-PKi)” value is 48.28% and the “% of CUG foci free nuclei (Vehicle)” value worked out at 27.09%. The substance also yielded an Indel efficiency in data set [2] of 45%. Moreover, in data set [3], the “% of CAG foci positive nuclei (DNA-PKi)” value stood at 1.22% and the “% of CAG foci positive nuclei (Vehicle)” value stood at 5%.

For the substance “GGCGCGGCTTCTGTGCCGTGCC (guide RNA; chemistry not fully specified) [SluU16]”, in data set [1], the “% of CUG foci free nuclei (DNA-PKi)” value is on record as 27.5% and the “% of CUG foci free nuclei (Vehicle)” value was 10.73%. Moreover, in data set [2], the Indel efficiency turned out to be 7%. In data set [3], the “% of CAG foci positive nuclei (DNA-PKi)” value is given as 1.73% and the “% of CAG foci positive nuclei (Vehicle)” value was determined as 1.28%.

With “CCAGCCGGCTCCGCCCGCTTCG (listed as DNA, chemistry not fully specified) [SluD56]”, in data set [1], the “% of CUG foci free nuclei (DNA-PKi)” value worked out at 31.7% and the “% of CUG foci free nuclei (Vehicle)” value was determined as 13.88%. For the same substance, the Indel efficiency in data set [2] worked out at 70%. In data set [2] (single-cut, SluCas9 RNP, 72 hrs post nucleofection, wild-type allele), the “indel efficiency (Sanger sequencing and ICE analysis)” value is “high editing IN4DEL efficiency”. In addition, in data set [3], the “% of CAG foci positive nuclei (DNA-PKi)” value stood at 2.91% and the “% of CAG foci positive nuclei (Vehicle)” value worked out at 1.04%.

In the case of “CGGATCACAGGACTGGAGCTGG (guide RNA; chemistry not fully specified) [SluU29]”, in data set [1], the “% of CUG foci free nuclei (DNA-PKi)” value is on record as 48.49% and the “% of CUG foci free nuclei (Vehicle)” value came to 27.28%. The substance further came in with an Indel efficiency in data set [2] of 67%. In addition, in data set [3], the “% of CAG foci positive nuclei (DNA-PKi)” value worked out at 1.82% and the “% of CAG foci positive nuclei (Vehicle)” value was 1.18%.

On to “CTTTTATTCGCGAGGGTCGGGG (guide RNA; chemistry not fully specified) [SluD93]”, for which, in data set [1], the “% of CUG foci free nuclei (DNA-PKi)” value came to 26.14% and the “% of CUG foci free nuclei (Vehicle)” value is on record as 11.34%. In data set [2], this substance gave an Indel efficiency of 18%. Also, in data set [3], the “% of CAG foci positive nuclei (DNA-PKi)” value stood at 3.58% and the “% of CAG foci positive nuclei (Vehicle)” value worked out at 1.63%.

As for “CTCAGTGCATCCAAAACGTGGA (guide RNA; chemistry not fully specified) [SluD77]”, in data set [1], the “% of CUG foci free nuclei (DNA-PKi)” value is listed as 28.94% and the “% of CUG foci free nuclei (Vehicle)” value stood at 14.94%. Further, the Indel efficiency in data set [2] came out at 17%. Besides, in data set [3], the “% of CAG foci positive nuclei (DNA-PKi)” value is recorded as 3.13% and the “% of CAG foci positive nuclei (Vehicle)” value came to 1.8%.

As for “gggccgggtccgcggccggcga (GGGCCGGGTCCGCGGCCGGCGA; guide RNA; chemistry not fully specified) [SluU55]”, in data set [1], the “% of CUG foci free nuclei (DNA-PKi)” value is recorded as 57.91% and the “% of CUG foci free nuclei (Vehicle)” value stood at 27.94%. The Indel efficiency in data set [2] is recorded as 67%. In data set [3], the “% of CAG foci positive nuclei (DNA-PKi)” value was found to be 1.34% and the “% of CAG foci positive nuclei (Vehicle)” value is recorded as 0.99%.

These data come from patent US20240173432A1, “Compositions and Methods for Treatment of Myotonic Dystrophy Type 1 with CRISPR/SluCas9” (Vertex Pharmaceuticals Incorporated, priority 2021, published 2024).
